# Assay results as given in US20120213758A1, “BIARYL PDE4 INHIBITORS FOR TREATING PULMONARY AND CARDIOVASCULAR DISORDERS” (DeCODE Genetics enf, priority 2007, published 2012).
# Key:
# [1] = system: experimentally-induced interstitial cystitis; conditions: rats; frequency of urination decreased, urine volume per urination increased; cited from earlier work
# [2] = system: patients suffering from asthma and COPD; conditions: effect of cilomilast disappeared on long-term trial; cited from earlier work
# hPDE4D = hPDE4D (Homo sapiens, UniProt Q08499); assay: In-vitro real-time enzyme-coupled spectrophotometric assay for PDE4 enzymes (hPDE4D)
# hPDE4B = hPDE4B (Homo sapiens, UniProt Q07343); assay: In-vitro real-time enzyme-coupled spectrophotometric assay for PDE4 enzymes (hPDE4B)
# hPDE4B, sequence (Q07343 whole entry): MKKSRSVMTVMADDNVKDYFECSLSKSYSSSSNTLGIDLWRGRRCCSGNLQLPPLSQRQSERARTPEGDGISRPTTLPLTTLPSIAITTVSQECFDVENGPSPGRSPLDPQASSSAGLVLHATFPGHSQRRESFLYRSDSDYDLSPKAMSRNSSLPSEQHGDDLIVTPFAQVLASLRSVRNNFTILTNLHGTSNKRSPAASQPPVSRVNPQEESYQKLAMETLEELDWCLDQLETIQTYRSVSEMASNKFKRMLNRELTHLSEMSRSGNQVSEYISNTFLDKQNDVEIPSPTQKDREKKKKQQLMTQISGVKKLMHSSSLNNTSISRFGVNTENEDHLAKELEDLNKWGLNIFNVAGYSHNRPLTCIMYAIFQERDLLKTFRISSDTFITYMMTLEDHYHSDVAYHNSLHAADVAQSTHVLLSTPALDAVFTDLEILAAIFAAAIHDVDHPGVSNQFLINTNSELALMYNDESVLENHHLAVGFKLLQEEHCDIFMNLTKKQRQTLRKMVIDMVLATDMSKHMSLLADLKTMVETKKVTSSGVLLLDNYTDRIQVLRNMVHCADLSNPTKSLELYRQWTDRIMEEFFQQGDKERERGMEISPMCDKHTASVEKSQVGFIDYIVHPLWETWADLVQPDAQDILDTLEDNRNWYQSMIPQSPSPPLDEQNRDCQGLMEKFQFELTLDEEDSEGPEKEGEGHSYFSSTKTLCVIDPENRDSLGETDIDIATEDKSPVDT
# hPDE4D, sequence (Q08499 whole entry): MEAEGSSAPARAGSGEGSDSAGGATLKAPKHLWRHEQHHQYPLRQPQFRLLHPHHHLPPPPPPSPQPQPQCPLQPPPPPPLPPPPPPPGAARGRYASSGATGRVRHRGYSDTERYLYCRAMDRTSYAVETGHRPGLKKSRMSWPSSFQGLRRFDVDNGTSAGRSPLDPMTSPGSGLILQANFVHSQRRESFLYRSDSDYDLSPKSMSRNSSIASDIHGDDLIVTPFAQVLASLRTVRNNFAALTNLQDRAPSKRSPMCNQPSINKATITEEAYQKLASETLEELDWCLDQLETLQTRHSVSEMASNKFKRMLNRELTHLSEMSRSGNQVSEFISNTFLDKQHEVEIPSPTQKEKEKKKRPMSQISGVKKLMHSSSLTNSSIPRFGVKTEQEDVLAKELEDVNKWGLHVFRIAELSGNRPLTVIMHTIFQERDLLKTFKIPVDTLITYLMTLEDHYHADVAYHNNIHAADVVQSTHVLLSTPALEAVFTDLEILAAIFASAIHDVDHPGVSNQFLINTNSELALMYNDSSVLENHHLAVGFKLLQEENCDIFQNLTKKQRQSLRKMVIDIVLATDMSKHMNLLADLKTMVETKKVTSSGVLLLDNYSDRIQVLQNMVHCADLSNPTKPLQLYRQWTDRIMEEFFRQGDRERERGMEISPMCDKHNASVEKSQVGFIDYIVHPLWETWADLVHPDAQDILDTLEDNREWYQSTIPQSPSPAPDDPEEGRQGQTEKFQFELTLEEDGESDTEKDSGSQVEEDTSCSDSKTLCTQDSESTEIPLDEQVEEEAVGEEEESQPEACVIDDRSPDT
Structure (SMILES),effect on experimentally-induced interstitial cystitis [1],clinical effect in asthma and COPD [2],IC50 (hPDE4D),IC50 (hPDE4B)
CCc1ccc2c(-c3cccc(Cl)c3)nc(=O)n(CC)c2n1 [YM976],ameliorate the effects of experimentally-induced interstitial cystitis in rats,–,–,–
COc1ccc([C@]2(C#N)CC[C@@H](C(=O)O)CC2)cc1OC1CCCC1 [cilomilast],–,showed initially excellent results,–,–
O=C(Nc1c(Cl)cncc1Cl)c1ccc(OC(F)F)c(OCC2CC2)c1 [roflumilast],–,showed initially excellent results,–,–
"COc1ccc(Cc2ccc(N(CC(=O)O)C(C)=O)nc2)c(F)c1-c1cccc(Cl)c1 [Example A-037, {acetyl-[5-(3′-chloro-2-fluoro-6-methoxy-biphenyl-3-ylmethyl)-pyridin-2-yl]-amino}-acetic acid]",–,–,< 5 µM,< 5 µM
COc1ccc(Cc2ccc(NS(N)(=O)=O)nc2)c(F)c1-c1cccc(Cl)c1 [Example A-010],–,–,< 5 µM,< 5 µM
"COc1ccc(Cc2ccc(N(C)CC(=O)O)nc2)c(F)c1-c1cccc(Cl)c1 [Example A-074, {[5-(3′-chloro-2-fluoro-6-methoxy-biphenyl-3-ylmethyl)-pyridin-2-yl]-methyl-amino}-acetic acid]",–,–,< 5 µM,< 5 µM
